Assay results taken from publication PMC11851430, “Workflow for E3 Ligase Ligand Validation for PROTAC Development” (ACS Chemical Biology, 2025).

Assays:
CAMK2BA = biological target: T1, CAMK2BA (Homo sapiens, UniProt Q13554); test: DSF assay; format: binding; conditions: 20 µM compound
T1 construct: purchased in-house DSF panel (SGC-style construct names; the trailing A/B is a construct suffix)

[1] = biological target: T2, kinase protein levels in MCF-7 cells (Homo sapiens, UniProt A0A0B4J2F0); test: TMT-labeled quantitative proteomics; format: cell-based; conditions: protein PIGBOS1, MCF7, 1 µM
T2 construct: endogenous in cells; host or cells: MCF-7
T2 sequence (A0A0B4J2F0 1-54): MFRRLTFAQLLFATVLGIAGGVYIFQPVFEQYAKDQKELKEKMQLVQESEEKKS

T1 sequence (Q13554 11-303): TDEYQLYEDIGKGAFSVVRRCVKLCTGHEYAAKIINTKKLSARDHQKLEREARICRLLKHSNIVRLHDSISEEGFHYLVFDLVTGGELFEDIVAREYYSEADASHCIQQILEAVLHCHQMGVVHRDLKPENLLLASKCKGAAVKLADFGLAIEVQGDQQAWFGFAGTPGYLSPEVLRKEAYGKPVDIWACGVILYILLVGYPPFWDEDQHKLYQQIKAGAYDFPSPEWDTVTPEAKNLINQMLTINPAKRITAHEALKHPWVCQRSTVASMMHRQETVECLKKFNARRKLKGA

Structure (SMILES)	ΔTm at 20 µM (CAMK2BA)	P.Value (compound/DMSO) ([1]; set1.1)	log2FC (compound/DMSO) ([1]; set1.1)	also measured
Cc1ncsc1-c1ccc(CNC(=O)[C@@H]2C[C@@H](O)CN2C(=O)[C@@H](NC(=O)CCOCCOCCOCCN2CCN(c3cc(Nc4cc(C5CC5)[nH]n4)nc(Nc4ccc(CC#N)cc4)n3)CC2)C(C)(C)C)cc1 [4-a]		0.3761	0.1046	
CC(=O)N[C@H](C(=O)N1C[C@H](O)C[C@H]1C(=O)NCc1ccc(-c2scnc2C)cc1OCCOCCOCCOCCNC(=O)c1cc(Nc2cc(C3CC3)[nH]n2)nc(Nc2ccc(CC#N)cc2)n1)C(C)(C)C [5-b]				P.Value (compound/DMSO) ([1]; set2): 0.8938; log2FC (compound/DMSO) ([1]; set2): 0.0131
Cc1ncsc1-c1ccc(CNC(=O)[C@@H]2C[C@@H](O)CN2C(=O)[C@@H](NC(=O)CCOCCOCCOCCOCCN2CCN(c3ccc(Nc4ncc(Cl)c(Nc5ccccc5C(N)=O)n4)cc3)CC2)C(C)(C)C)cc1 [6-b]		0.6062	-0.04609	
CC(=O)N[C@H](C(=O)N1C[C@H](O)C[C@H]1C(=O)NCc1ccc(-c2scnc2C)cc1OCCOCCOCCOCCOCCC(=O)N1CCN(c2ccc(Nc3ncc(Cl)c(Nc4ccccc4C(N)=O)n3)cc2)CC1)C(C)(C)C [6-e]				P.Value (compound/DMSO) ([1]; set2): 0.4063; log2FC (compound/DMSO) ([1]; set2): 0.08613

Now from value to compound, other results behind:

ΔTm at 20 µM (CAMK2BA)	P.Value (compound/DMSO) ([1]; set1.1)	log2FC (compound/DMSO) ([1]; set1.1)	Structure (SMILES)	also measured
-0.09 °C			CC(C)(C)OC(=O)NCCOCCOCCOCCOCCC(=O)N1CCN(c2cc(Nc3cc(C4CC4)[nH]n3)nc(Nc3ccc(CC#N)cc3)n2)CC1 [4-L]	
0.97 °C			CC(C)(C)OC(=O)NCCCOCCOCCOCCCNC(=O)c1cc(Nc2cc(C3CC3)[nH]n2)nc(Nc2ccc(CC#N)cc2)n1 [5-L]	
	0.533	0.05527	Cc1ncsc1-c1ccc(CNC(=O)[C@@H]2C[C@@H](O)CN2C(=O)[C@@H](NC(=O)CCOCCOCCNC(=O)c2cc(Nc3cc(C4CC4)[nH]n3)nc(Nc3ccc(CC#N)cc3)n2)C(C)(C)C)cc1 [5-a]	
1.15 °C			CCOC(=O)c1cc(Nc2cc(C3CC3)[nH]n2)nc(Nc2ccc(CC#N)cc2)n1 [compound 5]	
